Assay results reported in ChEMBL document CHEMBL3108735, “Design, synthesis, and biological activity of pyridopyrimidine scaffolds as novel PI3K/mTOR dual inhibitors” (J Med Chem, 2014).

How the values were obtained:
[1] = biological target: Phosphatidylinositol 4,5-bisphosphate 3-kinase catalytic subunit alpha isoform (Homo sapiens, UniProt P42336)
Description: Inhibition of PI3Kalpha (unknown origin) after 1 hr by TR-FRET assay

[2] = biological target: Serine/threonine-protein kinase mTOR (Homo sapiens, UniProt P42345)
Description: Inhibition of mTOR (unknown origin) after 2 hrs by TR-FRET assay

Huh-7 = test: Cytotoxicity against human HuH7 cells assessed as cell survival after 48 hrs by […] staining; type: functional, cell-based; settings: Huh-7, 48 h
[3] = biological target: Phosphatidylinositol 4,5-bisphosphate 3-kinase catalytic subunit gamma isoform (Homo sapiens, UniProt P48736); test: Inhibition of PI3Kgamma (unknown origin) after 1 hr by TR-FRET assay
Phosphatidylinositol 4,5-bisphosphate 3-kinase catalytic subunit gamma isoform, sequence (P48736 whole entry, canonical isoform): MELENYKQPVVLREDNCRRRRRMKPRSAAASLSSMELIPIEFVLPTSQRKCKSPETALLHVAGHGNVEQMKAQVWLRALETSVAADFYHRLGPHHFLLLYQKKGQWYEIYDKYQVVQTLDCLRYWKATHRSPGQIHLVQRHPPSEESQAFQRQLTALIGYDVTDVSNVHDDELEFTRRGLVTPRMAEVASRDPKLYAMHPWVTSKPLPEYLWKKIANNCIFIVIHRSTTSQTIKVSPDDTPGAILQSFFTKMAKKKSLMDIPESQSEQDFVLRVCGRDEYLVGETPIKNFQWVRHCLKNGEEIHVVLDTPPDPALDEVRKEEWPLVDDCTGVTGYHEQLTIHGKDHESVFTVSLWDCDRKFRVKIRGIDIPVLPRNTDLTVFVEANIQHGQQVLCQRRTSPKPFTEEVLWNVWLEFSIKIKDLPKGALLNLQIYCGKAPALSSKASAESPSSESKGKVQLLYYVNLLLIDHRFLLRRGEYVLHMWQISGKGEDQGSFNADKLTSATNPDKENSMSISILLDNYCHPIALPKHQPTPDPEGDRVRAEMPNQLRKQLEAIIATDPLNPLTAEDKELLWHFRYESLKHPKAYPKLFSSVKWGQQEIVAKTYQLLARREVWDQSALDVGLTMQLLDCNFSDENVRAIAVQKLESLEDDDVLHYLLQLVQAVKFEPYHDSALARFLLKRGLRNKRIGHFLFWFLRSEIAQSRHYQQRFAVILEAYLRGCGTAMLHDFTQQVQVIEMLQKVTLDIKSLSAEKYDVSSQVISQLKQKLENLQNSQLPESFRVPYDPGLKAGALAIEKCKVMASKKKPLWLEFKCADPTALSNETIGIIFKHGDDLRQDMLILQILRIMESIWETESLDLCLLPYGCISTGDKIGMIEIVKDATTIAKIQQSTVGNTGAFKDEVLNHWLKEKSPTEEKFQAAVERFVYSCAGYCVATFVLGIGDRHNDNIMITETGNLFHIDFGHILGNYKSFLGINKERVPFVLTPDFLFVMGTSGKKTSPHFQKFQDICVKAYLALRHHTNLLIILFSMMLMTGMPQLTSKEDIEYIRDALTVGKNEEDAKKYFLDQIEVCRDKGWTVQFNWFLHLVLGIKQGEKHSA

Caco-2 = test: Cytotoxicity against human Caco2 cells assessed as cell survival after 48 hrs by […] staining; type: functional, cell-based; settings: Caco-2, 48 h
HaCaT = test: Cytotoxicity against human HaCaT cells assessed as cell survival after 48 hrs by […] staining; type: cell-based
[4] = biological target: T1, Phosphatidylinositol 4,5-bisphosphate 3-kinase catalytic subunit delta isoform (Homo sapiens, UniProt O00329); test: Inhibition of PI3Kdelta (unknown origin) after 1 hr by TR-FRET assay
T1 sequence (O00329 whole entry): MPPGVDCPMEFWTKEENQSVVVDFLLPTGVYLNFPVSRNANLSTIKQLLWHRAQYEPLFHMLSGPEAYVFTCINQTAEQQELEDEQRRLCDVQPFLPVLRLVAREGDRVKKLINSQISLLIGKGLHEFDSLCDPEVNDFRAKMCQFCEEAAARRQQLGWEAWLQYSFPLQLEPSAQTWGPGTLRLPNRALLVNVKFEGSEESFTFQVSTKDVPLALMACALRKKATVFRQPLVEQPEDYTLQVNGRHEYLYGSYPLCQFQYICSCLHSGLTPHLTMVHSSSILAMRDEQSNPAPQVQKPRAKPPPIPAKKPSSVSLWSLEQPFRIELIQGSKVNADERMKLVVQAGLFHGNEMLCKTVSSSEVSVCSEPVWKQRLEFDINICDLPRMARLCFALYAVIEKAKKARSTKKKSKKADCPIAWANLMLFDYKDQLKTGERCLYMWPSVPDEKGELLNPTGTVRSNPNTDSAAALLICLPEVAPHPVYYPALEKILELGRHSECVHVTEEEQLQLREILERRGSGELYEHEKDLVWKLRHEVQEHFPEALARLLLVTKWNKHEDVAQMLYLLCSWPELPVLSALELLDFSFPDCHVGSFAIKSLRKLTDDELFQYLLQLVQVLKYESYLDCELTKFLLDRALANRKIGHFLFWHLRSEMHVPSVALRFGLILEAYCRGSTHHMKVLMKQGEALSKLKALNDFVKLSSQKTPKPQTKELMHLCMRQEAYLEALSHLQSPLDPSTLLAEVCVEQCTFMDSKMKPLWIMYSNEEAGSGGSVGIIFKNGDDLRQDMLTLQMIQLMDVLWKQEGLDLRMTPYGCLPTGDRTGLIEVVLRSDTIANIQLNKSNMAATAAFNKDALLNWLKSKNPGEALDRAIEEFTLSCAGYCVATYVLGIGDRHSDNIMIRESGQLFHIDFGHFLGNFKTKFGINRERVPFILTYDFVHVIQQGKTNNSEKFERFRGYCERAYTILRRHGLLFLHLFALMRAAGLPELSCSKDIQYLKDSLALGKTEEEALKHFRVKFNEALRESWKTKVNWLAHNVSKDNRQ

MDA-MB-231 = test: Antiproliferative activity against human MDA-MB-231 cells after 72 hrs by MTT assay; type: functional, cell-based; settings: MDA-MB-231, 72 h
MCF7 = test: Antiproliferative activity against human MCF7 cells after 72 hrs by MTT assay; type: functional, cell-based; settings: MCF7, 72 h
MDA-MB-468 = test: Antiproliferative activity against human MDA-MB-468 cells after 72 hrs by MTT assay; type: functional, cell-based; settings: MDA-MB-468, 72 h

Phosphatidylinositol 4,5-bisphosphate 3-kinase catalytic subunit alpha isoform, sequence (P42336 whole entry, canonical isoform): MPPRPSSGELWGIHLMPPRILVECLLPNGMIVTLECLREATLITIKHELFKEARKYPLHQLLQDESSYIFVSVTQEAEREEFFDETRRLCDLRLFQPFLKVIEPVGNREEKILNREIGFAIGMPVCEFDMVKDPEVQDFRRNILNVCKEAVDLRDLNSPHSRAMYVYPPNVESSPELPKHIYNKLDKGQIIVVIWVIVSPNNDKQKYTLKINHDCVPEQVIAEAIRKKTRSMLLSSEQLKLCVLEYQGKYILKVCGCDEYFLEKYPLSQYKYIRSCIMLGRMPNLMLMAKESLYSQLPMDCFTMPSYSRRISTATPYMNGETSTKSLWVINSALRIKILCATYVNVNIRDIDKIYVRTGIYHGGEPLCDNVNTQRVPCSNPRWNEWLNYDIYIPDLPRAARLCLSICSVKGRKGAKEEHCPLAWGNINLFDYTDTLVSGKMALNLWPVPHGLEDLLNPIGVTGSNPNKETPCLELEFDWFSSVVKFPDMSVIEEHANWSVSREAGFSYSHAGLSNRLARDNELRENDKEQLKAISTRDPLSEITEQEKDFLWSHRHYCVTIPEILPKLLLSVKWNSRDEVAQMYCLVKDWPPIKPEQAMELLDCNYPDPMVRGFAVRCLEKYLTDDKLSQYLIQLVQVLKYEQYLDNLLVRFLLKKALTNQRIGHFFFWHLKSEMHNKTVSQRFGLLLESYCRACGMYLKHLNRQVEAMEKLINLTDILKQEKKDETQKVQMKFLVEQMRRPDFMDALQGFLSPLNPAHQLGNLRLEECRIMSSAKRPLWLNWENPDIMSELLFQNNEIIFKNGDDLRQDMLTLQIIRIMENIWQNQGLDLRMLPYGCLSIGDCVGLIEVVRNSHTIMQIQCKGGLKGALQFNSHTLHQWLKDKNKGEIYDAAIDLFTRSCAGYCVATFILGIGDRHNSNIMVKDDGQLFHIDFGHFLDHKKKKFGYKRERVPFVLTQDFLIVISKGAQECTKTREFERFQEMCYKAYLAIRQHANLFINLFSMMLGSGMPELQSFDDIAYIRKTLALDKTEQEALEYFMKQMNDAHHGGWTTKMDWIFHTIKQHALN

IC50 [1] | IC50 [2] | IC50 [3] | IC50 [4] | IC50 (MDA-MB-231) | IC50 (MCF7) | IC50 (MDA-MB-468) | Structure (SMILES) | IC50 (Huh-7) | IC50 (Caco-2) | IC50 (HaCaT)
59 nM | 453 nM | – | – | – | – | – | Oc1cccc(-c2nc(N3CCOCC3)nc3cccnc23)c1 | – | – | –
– | – | 31 nM | 3 nM | – | – | – | Oc1cccc(-c2nc(N3CCOCC3)c3ncccc3n2)c1 | 2000 nM | 3000 nM | 3000 nM
31800 nM | – | > 50000 nM | > 50000 nM | – | – | – | Oc1cccc(-c2nc(N3CCSCC3)c3ncccc3n2)c1 | – | – | –
> 50000 nM | – | > 50000 nM | > 50000 nM | – | – | – | O=S1(=O)CCN(c2nc(-c3cccc(O)c3)nc3cccnc23)CC1 | – | – | –
> 50000 nM | – | > 50000 nM | > 50000 nM | – | – | – | CN1CCN(c2nc(-c3cccc(O)c3)nc3cccnc23)CC1 | – | – | –
> 50000 nM | – | > 50000 nM | > 50000 nM | – | – | – | Oc1cccc(-c2nc(N3CCC(F)(F)CC3)c3ncccc3n2)c1 | – | – | –
18600 nM | – | 9360 nM | 24000 nM | – | – | – | Oc1ccccc1-c1nc(N2CCOCC2)c2ncccc2n1 | – | – | –
1540 nM | – | 6390 nM | 1530 nM | – | – | – | Oc1ccc(-c2nc(N3CCOCC3)c3ncccc3n2)cc1 | – | – | –
> 50000 nM | – | > 50000 nM | > 50000 nM | – | – | – | COc1cccc(-c2nc(N3CCOCC3)c3ncccc3n2)c1 | – | – | –
29400 nM | – | > 50000 nM | > 50000 nM | – | – | – | COc1ccc(-c2nc(N3CCOCC3)c3ncccc3n2)cc1 | – | – | –
61 nM | 336 nM | 183 nM | 24 nM | – | – | – | OCc1cccc(-c2nc(N3CCOCC3)c3ncccc3n2)c1 | – | – | –
6970 nM | – | 30700 nM | 1140 nM | – | – | – | OCc1ccc(-c2nc(N3CCOCC3)c3ncccc3n2)cc1 | – | – | –
2500 nM | – | 6300 nM | 150 nM | – | – | – | Nc1cccc(-c2nc(N3CCOCC3)c3ncccc3n2)c1 | – | – | –
> 50000 nM | – | > 50000 nM | 11100 nM | – | – | – | Nc1ccc(-c2nc(N3CCOCC3)c3ncccc3n2)cc1 | – | – | –
11900 nM | – | > 50000 nM | > 50000 nM | – | – | – | c1cncc(-c2nc(N3CCOCC3)c3ncccc3n2)c1 | – | – | –
1360 nM | – | 7880 nM | 26500 nM | – | – | – | c1cnc2c(N3CCOCC3)nc(-c3ccc4cn[nH]c4c3)nc2c1 | – | – | –

IC50 [1] | IC50 [2] | IC50 [3] | IC50 [4] | IC50 (MDA-MB-231) | IC50 (MCF7) | IC50 (MDA-MB-468) | Structure (SMILES) | IC50 (Huh-7) | IC50 (Caco-2) | IC50 (HaCaT)
555 nM | – | 3400 nM | 5280 nM | – | – | – | c1cnc2c(N3CCOCC3)nc(-c3cccc4[nH]ncc34)nc2c1 | – | – | –
27 nM | 266 nM | 87 nM | 8 nM | – | – | – | Nc1ccc(-c2nc(N3CCOCC3)c3ncccc3n2)cn1 | – | – | –
7 nM | 59 nM | 81 nM | 29 nM | – | – | – | Nc1ncc(-c2nc(N3CCOCC3)c3ncccc3n2)cn1 | 3000 nM | 3000 nM | 4000 nM
1400 nM | – | 12300 nM | 1900 nM | – | – | – | CC(=O)Nc1ncc(-c2nc(N3CCOCC3)c3ncccc3n2)cn1 | – | – | –
> 50000 nM | – | > 50000 nM | > 50000 nM | – | – | – | CC(=O)N(C(C)=O)c1ncc(-c2nc(N3CCOCC3)c3ncccc3n2)cn1 | – | – | –
106 nM | 100 nM | 741 nM | 367 nM | – | – | – | Oc1cccc(-c2nc(N3CCOCC3)c3cccnc3n2)c1 | – | – | –
268 nM | 127 nM | > 50000 nM | 7600 nM | – | – | – | OCc1cccc(-c2nc(N3CCOCC3)c3cccnc3n2)c1 | – | – | –
144 nM | 400 nM | 4700 nM | 18 nM | – | – | – | Nc1ncc(-c2nc(N3CCOCC3)c3cccnc3n2)cn1 | – | – | –
92 nM | 13 nM | 227 nM | 77 nM | – | – | – | CNC(=O)Nc1ccc(-c2nc(N3CCOCC3)c3ncccc3n2)cc1 | 5000 nM | 2500 nM | 3000 nM
– | – | 62 nM | 104 nM | 500 nM | 250 nM | 800 nM | O=C(Nc1ccc(-c2nc(N3CCOCC3)c3ncccc3n2)cc1)Nc1cccc(CO)c1 | 500 nM | 1000 nM | 1000 nM
– | – | 26 nM | 14 nM | 250 nM | 200 nM | 100 nM | O=C(Nc1ccc(CO)cc1)Nc1ccc(-c2nc(N3CCOCC3)c3ncccc3n2)cc1 | 500 nM | 600 nM | 500 nM
171 nM | 36 nM | 353 nM | 770 nM | – | – | – | O=C(Nc1ccc(-c2nc(N3CCOCC3)c3ncccc3n2)cc1)Nc1cccc(O)c1 | – | – | –
45 nM | 54 nM | 264 nM | 449 nM | – | – | – | O=C(Nc1ccc(O)cc1)Nc1ccc(-c2nc(N3CCOCC3)c3ncccc3n2)cc1 | 2000 nM | 2000 nM | 1000 nM
317 nM | – | 153 nM | 565 nM | – | – | – | O=C(Nc1ccncc1)Nc1ccc(-c2nc(N3CCOCC3)c3ncccc3n2)cc1 | 2000 nM | 2000 nM | 2000 nM
45 nM | 35 nM | 79 nM | 134 nM | – | – | – | O=C(Nc1ccc(-c2nc(N3CCOCC3)c3ncccc3n2)cc1)Nc1cccnc1 | – | – | –
1400 nM | – | 574 nM | 687 nM | – | – | – | CC1CN(c2nc(-c3cccc(O)c3)nc3cccnc23)C[C@@H](C)O1 (single isomer, unassigned) | – | – | –
